# Data from ChEMBL document CHEMBL3879915, “Methods of inhibiting PRMT5” (2014).
# Molecular target: PRMT5/MEP50 complex (Homo sapiens, UniProt O14744)
# Assay: Inhibition of recombinant human fetal brain FLAG-tagged PRMT5/full length human testis 6His-tagged MEP50 expressed in baculovirus infected insect Sf9 cells using human histone H4 (1 to 15 residues) as substrate preincubated for 30 mins followed by [3H]-SAM addition
# Sequence of PRMT5/MEP50 complex (O14744 whole entry, the tested form may be a part): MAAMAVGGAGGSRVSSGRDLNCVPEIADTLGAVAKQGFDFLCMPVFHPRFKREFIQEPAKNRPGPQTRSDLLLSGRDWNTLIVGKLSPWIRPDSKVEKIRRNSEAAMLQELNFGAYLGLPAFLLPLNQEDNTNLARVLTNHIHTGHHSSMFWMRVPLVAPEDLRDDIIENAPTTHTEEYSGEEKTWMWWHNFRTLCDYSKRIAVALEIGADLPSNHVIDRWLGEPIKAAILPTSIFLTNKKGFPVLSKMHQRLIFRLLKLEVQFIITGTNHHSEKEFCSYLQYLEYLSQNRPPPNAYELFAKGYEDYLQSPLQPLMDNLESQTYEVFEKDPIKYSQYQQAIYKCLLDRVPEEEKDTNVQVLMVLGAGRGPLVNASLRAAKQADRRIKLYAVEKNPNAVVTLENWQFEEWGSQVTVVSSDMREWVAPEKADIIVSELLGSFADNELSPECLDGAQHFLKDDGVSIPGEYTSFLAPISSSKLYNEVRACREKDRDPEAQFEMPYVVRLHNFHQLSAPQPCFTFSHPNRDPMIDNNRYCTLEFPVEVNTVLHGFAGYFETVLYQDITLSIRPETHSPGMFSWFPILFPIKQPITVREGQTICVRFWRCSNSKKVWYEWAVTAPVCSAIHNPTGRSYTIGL
# Sequence of PRMT5/MEP50 complex (Q9BQA1 whole entry, further chain, the tested form may be a part): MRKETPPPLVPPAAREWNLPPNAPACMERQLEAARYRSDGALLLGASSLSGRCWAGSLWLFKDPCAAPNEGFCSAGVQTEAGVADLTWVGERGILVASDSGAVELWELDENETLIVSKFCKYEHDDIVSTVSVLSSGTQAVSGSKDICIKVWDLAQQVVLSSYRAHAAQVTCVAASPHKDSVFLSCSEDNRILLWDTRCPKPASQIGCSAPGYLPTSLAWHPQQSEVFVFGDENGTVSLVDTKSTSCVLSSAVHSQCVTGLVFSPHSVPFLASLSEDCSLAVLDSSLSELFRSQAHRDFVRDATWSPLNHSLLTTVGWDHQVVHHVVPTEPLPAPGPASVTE
row,Compound,IC50
1,O=C1CN(Cc2ccccn2)CCN1CC(O)CN1CCc2ccccc2C1 (configuration not stated),1 to 10 µM
2,COc1ccc(Cn2ccc(-c3ccc(OC[C@H](O)CN4CCc5ccccc5C4)cc3)n2)cc1,1 to 10 µM
3,O=C(NCC(O)CN1CCc2ccccc2C1)c1cc(NC2CCOCC2)ccn1 (configuration not stated),< 0.1 µM
4,CC(=O)N1CCN(CC(O)CN2CCc3ccccc3C2)C(=O)C1 (configuration not stated),1 to 10 µM
5,Nc1ncccc1OCC(=O)NCC(O)CN1CCc2ccccc2C1 (configuration not stated),1 to 10 µM
6,CC(C)(C)OC(=O)Nc1ccccc1OCC(=O)NCC(O)CN1CCc2ccccc2C1 (configuration not stated),1 to 10 µM
7,OC(COc1cccc(-c2ccc(F)cc2)c1)CN1CCc2ccccc2C1 (configuration not stated),1 to 10 µM
8,O=C1CC(c2ccccc2)CCN1C[C@H](O)CN1CCc2ccccc2C1 (some centres not stated),1 to 10 µM
9,OC(COc1ccc(Cc2ccccc2)cc1)CN1CCc2ccccc2C1 (configuration not stated),0.101 to 1 µM
10,CS(=O)(=O)Nc1cccnc1OCC(=O)NCC(O)CN1CCc2ccccc2C1 (configuration not stated),1 to 10 µM
11,O=C(COc1ccc(F)cc1)NCC(O)CN1CCc2ccccc2C1 (configuration not stated),1 to 10 µM
12,OC(COc1ccc(OCc2ccccc2)cc1)CN1CCc2ccccc2C1 (configuration not stated),1 to 10 µM
13,OCc1ccc(-c2cccc(OCC(O)CN3CCc4ccccc4C3)c2)cc1 (configuration not stated),1 to 10 µM
14,O=C1CN(Cc2ccccc2)CCN1CC(O)CN1CCc2ccccc2C1 (configuration not stated),1 to 10 µM
15,Oc1ccc(-c2cccc(OCC(O)CN3CCc4ccccc4C3)c2)cc1F (configuration not stated),1 to 10 µM
16,O=C(NCC(O)CN1CCc2ccccc2C1)c1cccc(C(=O)N2CCOCC2)c1 (configuration not stated),1 to 10 µM
17,CS(=O)(=O)c1ccc(OCC(=O)NCC(O)CN2CCc3ccccc3C2)cc1 (configuration not stated),1 to 10 µM
18,CN(C)c1cncc(OCC(=O)NCC(O)CN2CCc3ccccc3C2)c1 (configuration not stated),1 to 10 µM
19,O=C(COc1cccc(NC2CCOCC2)n1)NCC(O)CN1CCc2ccccc2C1 (configuration not stated),1 to 10 µM
20,OC(COc1cccc(CNC2CCCCC2)c1)CN1CCc2ccccc2C1 (configuration not stated),0.101 to 1 µM
21,CC(=O)Nc1cncc(OCC(=O)NCC(O)CN2CCc3ccccc3C2)c1 (configuration not stated),> 10 µM
22,O=C(COC1CCOCC1)NCC(O)CN1CCc2ccccc2C1 (configuration not stated),1 to 10 µM
23,COc1ccc(Cn2ccc(-c3ccc(OC[C@@H](O)CN4CCc5ccccc5C4)cc3)n2)cc1,10 to 40 µM

row,Compound,IC50
1,OC(COc1cccc(CNC2CCOCC2)c1)CN1CCc2ccccc2C1 (configuration not stated),0.101 to 1 µM
2,OC(COCc1cc(-c2ccc(Cl)cc2)no1)CN1CCc2ccccc2C1 (configuration not stated),0.101 to 1 µM
3,O=C(COc1ccccc1OCCN1CCOCC1)NC[C@@H](O)CN1CCc2ccccc2C1,1 to 10 µM
4,O=C(NCC(O)CN1CCc2ccccc2C1)c1ccc(OC2CCOCC2)cc1 (configuration not stated),< 0.1 µM
5,O=C(COc1ccccc1-c1c[nH]cn1)NCC(O)CN1CCc2ccccc2C1 (configuration not stated),10 to 50 µM
6,O=C(COc1ccccc1)NC[C@@H](O)CN1CCc2ccccc2C1,1 to 10 µM
7,O=C1CC(c2ccccc2)CCN1C[C@@H](O)CN1CCc2ccccc2C1 (some centres not stated),1 to 10 µM
8,O=c1cc(Nc2ccccc2)ccn1C[C@H](O)CN1CCc2ccccc2C1,1 to 10 µM
9,O=C1COCCN1CC(O)CN1CCc2ccccc2C1 (configuration not stated),1 to 10 µM
10,OC(COc1cccc(-c2cccc(Oc3ccccc3)c2)c1)CN1CCc2ccccc2C1 (configuration not stated),1 to 10 µM
11,O=C(NC[C@@H](O)CN1CCc2ccccc2C1)c1ccccc1,1 to 10 µM
12,OC(COc1ccccc1C1CCCCC1)CN1CCc2ccccc2C1 (configuration not stated),1 to 10 µM
13,OC(COc1cccc(-c2ccc(Cl)cc2)c1)CN1CCc2ccccc2C1 (configuration not stated),1 to 10 µM
14,OC(COc1cccc(CN2CCCCC2)c1)CN1CCc2ccccc2C1 (configuration not stated),1 to 10 µM
15,OC(COCc1ccc(CN2CCOCC2)cc1)CN1CCc2ccccc2C1 (configuration not stated),1 to 10 µM
16,CN1CCC(c2ccccc2OCC(=O)NCC(O)CN2CCc3ccccc3C2)C1 (configuration not stated),1 to 10 µM
17,O=C(COc1cccc2[nH]c(=O)cnc12)NCC(O)CN1CCc2ccccc2C1 (configuration not stated),1 to 10 µM
18,CC1CN(CC(O)COc2cccc(CNC3CCCC3)c2)Cc2ccccc21 (configuration not stated),> 40 µM
19,CS(=O)(=O)Nc1ccccc1C(=O)NCC(O)CN1CCc2ccccc2C1 (configuration not stated),1 to 10 µM
20,OC(CCc1cccc(CNC2CCCC2)c1)CN1CCc2ccccc2C1 (configuration not stated),10 to 40 µM
21,OC(COc1cccc(C2=CCCCC2)c1)CN1CCc2ccccc2C1 (configuration not stated),1 to 10 µM
22,Cn1cnc2ccc(N3CCCC(OCC(O)CN4CCc5ccccc5C4)C3)cc21 (configuration not stated),0.101 to 1 µM
23,OC(COC1CCCN(c2ccccc2)C1)CN1CCc2ccccc2C1 (configuration not stated),1 to 10 µM

row,Compound,IC50
1,COc1cc(NC2CCOCC2)cc(C(=O)NCC(O)CN2CCc3ccccc3C2)c1 (configuration not stated),0.101 to 1 µM
2,O=C1CN(Cc2cccnc2)CCN1CC(O)CN1CCc2ccccc2C1 (configuration not stated),1 to 10 µM
3,O=C(Cc1ccccc1)NC[C@@H](O)CN1CCc2ccccc2C1,10 to 50 µM
4,OC(COc1ccc(OCC(O)CN2CCc3ccccc3C2)cc1)CN1CCc2ccccc2C1 (configuration not stated),0.101 to 1 µM
5,O=C(NCC(O)CN1CCc2ccccc2C1)c1cc(NC2CCOCC2)ccc1F (configuration not stated),0.101 to 1 µM
6,Cc1ccc(-c2cccc(OCC(O)CN3CCc4ccccc4C3)c2)cn1 (configuration not stated),1 to 10 µM
7,CC1Cc2ccccc2CN1CC(O)COc1cccc(CNC2CCCC2)c1 (configuration not stated),> 40 µM
8,O=C(CC1CCCCC1)NC[C@H](O)CN1CCc2ccccc2C1,1 to 10 µM
9,COc1ccc(Cn2nccc2-c2ccc(OC[C@H](O)CN3CCc4ccccc4C3)cc2)cc1,1 to 10 µM
10,O=C(NC1CCOCC1)c1cccc(NCC(O)CN2CCc3ccccc3C2)c1 (configuration not stated),10 to 40 µM
11,NS(=O)(=O)c1cccc(OCC(=O)NCC(O)CN2CCc3ccccc3C2)c1 (configuration not stated),1 to 10 µM
12,O=C(COc1ccccc1C1CNC1)NCC(O)CN1CCc2ccccc2C1 (configuration not stated),1 to 10 µM
13,O=C1CN(C2CCOCC2)CCN1CC(O)CN1CCc2ccccc2C1 (configuration not stated),1 to 10 µM
14,C[C@H](Oc1cccc2cccnc12)C(=O)NC[C@@H](O)CN1CCc2ccccc2C1,1 to 10 µM
15,CN(CC(O)CN1CCc2ccccc2C1)C(=O)CCc1ccccc1 (configuration not stated),1 to 10 µM
16,COc1ccccc1-c1cccc(OCC(O)CN2CCc3ccccc3C2)c1 (configuration not stated),1 to 10 µM
17,O=C(COC1CCCCC1)NCC(O)CN1CCc2ccccc2C1 (configuration not stated),0.101 to 1 µM
18,CS(=O)(=O)N1CCN(CC(O)CN2CCc3ccccc3C2)C(=O)C1 (configuration not stated),1 to 10 µM
19,OC(COc1cccc(CNc2cc[nH]n2)c1)CN1CCc2ccccc2C1 (configuration not stated),0.101 to 1 µM
20,CC(C)(Oc1ccccc1)C(=O)NCC(O)CN1CCc2ccccc2C1 (configuration not stated),0.101 to 1 µM
21,CC(Nc1cccc(C(=O)NCC(O)CN2CCc3ccccc3C2)c1)C1CCOCC1 (configuration not stated),0.101 to 1 µM
22,OC(COc1ccccc1N1CCNCC1)CN1CCc2ccccc2C1 (configuration not stated),10 to 40 µM
23,CC1(C)CC(Nc2cccc(C(=O)NCC(O)CN3CCc4ccccc4C3)c2)CCO1 (configuration not stated),0.101 to 1 µM

row,Compound,IC50
1,OC(COc1cccc(CNC2CCNCC2)c1)CN1CCc2ccccc2C1 (configuration not stated),1 to 10 µM
2,CC(=O)Nc1ncccc1OCC(=O)NCC(O)CN1CCc2ccccc2C1 (configuration not stated),> 10 µM
3,CN(C)c1cccnc1OCC(=O)NCC(O)CN1CCc2ccccc2C1 (configuration not stated),> 10 µM
4,Cc1cccc(N2CCN(CC(O)CN3CCc4ccccc4C3)C(=O)C2)c1 (configuration not stated),10 to 50 µM
5,O=c1cccc(CC(O)CN2CCc3ccccc3C2)[nH]1 (configuration not stated),10 to 50 µM
6,O=C(COc1cccc2cccnc12)NCC(O)CN1Cc2ccccc2C(F)(F)C1 (configuration not stated),> 10 µM
7,CN1CCN(CC(O)CN2CCc3ccccc3C2)C(=O)C1 (configuration not stated),> 50 µM
8,O=C(Cc1ccccc1)NC[C@H](O)CN1CCc2ccccc2C1,0.101 to 1 µM
9,OC(COc1ccccc1-c1ccno1)CN1CCc2ccccc2C1 (configuration not stated),1 to 10 µM
10,OC(COc1ccc(-c2ccn[nH]2)cc1)CN1CCc2ccccc2C1 (configuration not stated),1 to 10 µM
11,O=C(CCc1ccccc1)NCC(O)CN1CCc2ccccc2C1 (configuration not stated),1 to 10 µM
12,CN(c1cccc(C(=O)NCC(O)CN2CCc3ccccc3C2)c1)C1CCOCC1 (configuration not stated),0.101 to 1 µM
13,Cc1cc(OCC(O)CN2CCc3ccccc3C2)c(C)cc1CN1CCOCC1 (configuration not stated),0.101 to 1 µM
14,O=C(COc1cccc2c1CCCN2)NCC(O)CN1CCc2ccccc2C1 (configuration not stated),0.101 to 1 µM
15,NS(=O)(=O)c1ccccc1C(=O)NCC(O)CN1CCc2ccccc2C1 (configuration not stated),1 to 10 µM
16,CC(=O)Nc1cccnc1OCC(=O)NCC(O)CN1CCc2ccccc2C1 (configuration not stated),> 50 µM
17,OC(COc1cccc(-c2cccnc2)c1)CN1CCc2ccccc2C1 (configuration not stated),1 to 10 µM
18,OC(COc1cccc(C2CCCCC2)c1)CN1CCc2ccccc2C1 (configuration not stated),1 to 10 µM
19,CC(Oc1ccccc1S(N)(=O)=O)C(=O)NCC(O)CN1CCc2ccccc2C1 (configuration not stated),> 50 µM
20,NS(=O)(=O)c1ccc(OCC(=O)NCC(O)CN2CCc3ccccc3C2)cc1 (configuration not stated),1 to 10 µM
21,CN(C)S(=O)(=O)c1cccc(-c2cccc(OCC(O)CN3CCc4ccccc4C3)c2)c1 (configuration not stated),> 40 µM
22,CN(CC(O)CN1CCc2ccccc2C1)C(=O)COc1ccccc1 (configuration not stated),10 to 50 µM
23,OC(COc1cccc2ccc(N3CCOCC3)nc12)CN1CCc2ccccc2C1 (configuration not stated),1 to 10 µM

row,Compound,IC50
1,O=C(CC1CCCCC1)NC[C@@H](O)CN1CCc2ccccc2C1,10 to 50 µM
2,O=C(Cc1ccncc1)NCC(O)CN1CCc2ccccc2C1 (configuration not stated),10 to 50 µM
3,OC(COC1CCN(Cc2ccccc2)C1)CN1CCc2ccccc2C1 (configuration not stated),1 to 10 µM
4,COc1ccc(Cl)c(-c2cccc(OCC(O)CN3CCc4ccccc4C3)c2)c1 (configuration not stated),1 to 10 µM
5,CS(=O)(=O)Nc1ncccc1OCC(=O)NCC(O)CN1CCc2ccccc2C1 (configuration not stated),> 10 µM
6,O=C(NCC(O)CN1CCc2ccccc2C1)c1cccc(NC2COC2)c1 (configuration not stated),0.101 to 1 µM
7,O=C(NC[C@H](O)CN1CCc2ccccc2C1)Oc1ccccc1,1 to 10 µM
8,CN(C)c1ccc(N2CCN(C[C@H](O)CN3CCc4ccccc4C3)C(=O)C2)cc1,1 to 10 µM
9,COc1cccc2c1CCN(CC(O)COc1cccc(CNC3CCCC3)c1)C2 (configuration not stated),> 40 µM
10,COc1ccc(Cn2nccc2-c2ccc(OC[C@@H](O)CN3CCc4ccccc4C3)cc2)cc1,> 40 µM
11,O=C(NCC(O)CN1CCc2ccccc2C1)c1cccc(CN2CCOCC2)c1 (configuration not stated),0.101 to 1 µM
12,O=C(NC[C@@H](O)CN1CCc2ccccc2C1)Nc1ccccc1,1 to 10 µM
13,OC(COc1cccc(OCc2ccccc2)c1)CN1CCc2ccccc2C1 (configuration not stated),1 to 10 µM
14,O=C(NC1CCOCC1)C1CC(=O)N(CC(O)CN2CCc3ccccc3C2)C1 (configuration not stated),> 10 µM
15,Cn1cc(-c2cccc(OCC(O)CN3CCc4ccccc4C3)c2)cn1 (configuration not stated),1 to 10 µM
16,O=C(NCC(O)CN1CCc2ccccc2C1)c1cncc(NC2CCOCC2)c1 (configuration not stated),< 0.1 µM
17,NC(=O)c1ccc(OCC(=O)NCC(O)CN2CCc3ccccc3C2)cc1 (configuration not stated),1 to 10 µM
18,OC(COc1cccc(-c2cncc(F)c2)c1)CN1CCc2ccccc2C1 (configuration not stated),1 to 10 µM
19,CN1CC(c2ccccc2OCC(=O)NCC(O)CN2CCc3ccccc3C2)C1 (configuration not stated),1 to 10 µM
20,O=C(COc1cccc2c1CCCN2Cc1ccccc1)NCC(O)CN1CCc2ccccc2C1 (configuration not stated),< 0.1 µM
